Experimental data from patent publication US8546320B2, “Hsp9O-targeted anti-cancer chimeric peptide” (Kyoto University, priority 2008, dated 2013).
Where a SMILES comes first, the peptide text is derived from it.

What was measured:
Caki-1 = type: cell-based, human; settings: Caki-1; for Anti-cancer activity (% relative to wild-type peptide) / Decrease in cell survival rate (% relative to wild-type peptide): wild-type peptide = 100%
Method: A total of 3×10^3 cells were inoculated per well on a 96 well plate and cultured in a medium containing 10% FBS for 24 hours, and incubated with 100 μl of a peptide having a gradual increase in concentration at 37° C. for 48 to 72 hours. The survival rate of the cells was measured by using WST-8 solution (Cell Count Reagent SF; Nacalai Tesque, Inc.).
(§1) Respective variant peptides were subjected to cell viability assay. Specifically, Caki-1 (American Type Culture Collection (Manassas, Va.) was inoculated in a total amount of 3×10^3 cells per well on a 96 well plate (Nunc™); the cells were cultured in a medium (DMEM (Tesque, Inc.) containing 10% FBS (fetal bovine serum; Biowest)) for 24 hours and incubated with 100 μl of a peptide having a gradual increase in concentration at 37° C. for 48 to 72 hours. The cell survival rate was measured by using WST-8 solution (Cell Count Reagent SF; Nacalai Tesque, Inc.) and compared with that of the wild-type Antp-TPR peptide.
as §1, with “medium” for “medium (DMEM (Tesque, Inc.)”, “FBS” for “FBS (fetal bovine serum; Biowest))”

cancer cells = assay: Cell viability assay, summary statements on cancer cells; type: cell-based; settings: for effect compared with the wild-type protein (summary of mutations): single mutation in TPR or Antp region of Antp-TPR
U937 = assay: cells; type: cell-based, human; settings: U937; for Cell Survival Rate (%): concentration not given; for Anti-cancer activity (% relative to wild-type peptide) / Decrease in cell survival rate (% relative to wild-type peptide): wild-type peptide = 100%
Method: A total of 3×10^3 cells per well were inoculated onto a 96 well plate, and incubated in a medium containing 10% FBS with 100 μl of a peptide diluted stepwise at 37° C. for 48 to 72 hours. The survival rate of the cells was measured by using WST-8 solution (Cell Count Reagent SF; Nacalai Tesque, Inc.).

| Molecule | killing effect compared with the wild-type peptide (Caki-1) | Anti-cancer activity (% relative to wild-type peptide) (Caki-1) [%] | Decrease in cell survival rate (% relative to wild-type peptide) (Caki-1) [%] | effect compared with the wild-type protein (summary of mutations) (cancer cells) | Cell Survival Rate (%) (U937) | Anti-cancer activity (% relative to wild-type peptide) (U937) [%] | Decrease in cell survival rate (% relative to wild-type peptide) (U937) [%] | further results |
| --- | --- | --- | --- | --- | --- | --- | --- | --- |
| CC[C@H](C)[C@H](NC(=O)[C@H](CCCNC(=N)N)NC(=O)[C@H](C)NC(=O)[C@H](Cc1ccc(O)cc1)NC(=O)[C@H](C)NC(=O)[C@H](CCCCN)NC(=O)[C@H](CCCCN)NC(=O)[C@H](CCCCN)NC(=O)[C@H](Cc1c[nH]c2ccccc12)NC(=O)[C@H](CCCNC(=N)N)NC(=O)[C@H](CCSC)NC(=O)[C@H](CCCNC(=N)N)NC(=O)[C@H](CCCNC(=N)N)NC(=O)[C@H](CC(N)=O)NC(=O)[C@H](CCC(N)=O)NC(=O)[C@H](Cc1ccccc1)NC(=O)[C@H](Cc1c[nH]c2ccccc12)NC(=O)[C@@H](NC(=O)[C@H](CCCCN)NC(=O)[C@@H](NC(=O)[C@H](CCC(N)=O)NC(=O)[C@@H](N)CCCNC(=N)N)[C@@H](C)CC)[C@@H](C)CC)C(=O)NCC(=O)N[C@@H](CC(N)=O)C(=O)N[C@@H](CO)C(=O)N[C@@H](Cc1ccc(O)cc1)C(=O)N[C@@H](Cc1ccccc1)C(=O)N[C@@H](CCCCN)C(=O)O [Antp K13R-TPR] (H-RQIKIWFQNRRMRWKKKAYARIGNSYFK-OH; N-terminus and C-terminus assumed) | stronger than that of the wild-type peptide | 108.64 | 360.96 | effect similar to that of the wild-type protein |  |  |  |  |
| CC[C@H](C)[C@H](NC(=O)[C@H](CCCNC(=N)N)NC(=O)[C@H](C)NC(=O)[C@H](Cc1ccc(O)cc1)NC(=O)[C@H](C)NC(=O)[C@H](CCCCN)NC(=O)[C@H](CCCCN)NC(=O)[C@H](CCCCN)NC(=O)[C@H](Cc1c[nH]c2ccccc12)NC(=O)[C@H](CCCCN)NC(=O)[C@H](CCSC)NC(=O)[C@H](CCCNC(=N)N)NC(=O)[C@H](CCCNC(=N)N)NC(=O)[C@H](CC(N)=O)NC(=O)[C@H](CCC(N)=O)NC(=O)[C@H](Cc1ccccc1)NC(=O)[C@H](Cc1c[nH]c2ccccc12)NC(=O)[C@@H](NC(=O)[C@H](CCCCN)NC(=O)[C@@H](NC(=O)[C@H](CC(N)=O)NC(=O)[C@@H](N)CCCNC(=N)N)[C@@H](C)CC)[C@@H](C)CC)C(=O)NCC(=O)N[C@@H](CC(N)=O)C(=O)N[C@@H](CO)C(=O)N[C@@H](Cc1ccc(O)cc1)C(=O)N[C@@H](Cc1ccccc1)C(=O)N[C@@H](CCCCN)C(=O)O [Antp Q2N-TPR] (H-RNIKIWFQNRRMKWKKKAYARIGNSYFK-OH; N-terminus and C-terminus assumed) |  | 88.97 | 52.02 | effect similar to that of the wild-type protein |  |  |  |  |
| CC[C@H](C)[C@H](NC(=O)[C@H](CCCNC(=N)N)NC(=O)[C@H](C)NC(=O)[C@H](Cc1ccc(O)cc1)NC(=O)[C@H](C)NC(=O)[C@H](CCCCN)NC(=O)[C@H](CCCCN)NC(=O)[C@H](CCCCN)NC(=O)[C@H](Cc1c[nH]c2ccccc12)NC(=O)[C@H](CCCCN)NC(=O)[C@H](CCSC)NC(=O)[C@H](CCCCN)NC(=O)[C@H](CCCNC(=N)N)NC(=O)[C@H](CC(N)=O)NC(=O)[C@H](CCC(N)=O)NC(=O)[C@H](Cc1ccccc1)NC(=O)[C@H](Cc1c[nH]c2ccccc12)NC(=O)[C@@H](NC(=O)[C@H](CCCCN)NC(=O)[C@@H](NC(=O)[C@H](CCC(N)=O)NC(=O)[C@@H](N)CCCNC(=N)N)[C@@H](C)CC)[C@@H](C)CC)C(=O)NCC(=O)N[C@@H](CC(N)=O)C(=O)N[C@@H](CO)C(=O)N[C@@H](Cc1ccc(O)cc1)C(=O)N[C@@H](Cc1ccccc1)C(=O)N[C@@H](CCCCN)C(=O)O [Antp R11K-TPR] (H-RQIKIWFQNRKMKWKKKAYARIGNSYFK-OH; N-terminus and C-terminus assumed) | stronger than that of the wild-type peptide | 104.39 | 158.09 | effect similar to that of the wild-type protein |  |  |  |  |
| CC[C@H](C)[C@H](NC(=O)[C@H](CCCNC(=N)N)NC(=O)[C@H](C)NC(=O)[C@H](Cc1ccc(O)cc1)NC(=O)[C@H](C)NC(=O)[C@H](CCCCN)NC(=O)[C@H](CCCCN)NC(=O)[C@H](CCCCN)NC(=O)[C@H](Cc1c[nH]c2ccccc12)NC(=O)[C@H](CCCCN)NC(=O)[C@H](CCSC)NC(=O)[C@H](CCCNC(=N)N)NC(=O)[C@H](CCCNC(=N)N)NC(=O)[C@H](CC(N)=O)NC(=O)[C@H](CCC(N)=O)NC(=O)[C@H](Cc1ccccc1)NC(=O)[C@H](Cc1c[nH]c2ccccc12)NC(=O)[C@@H](NC(=O)[C@H](CCCCN)NC(=O)[C@@H](NC(=O)[C@H](CCC(N)=O)NC(=O)[C@@H](N)CCCNC(=N)N)[C@@H](C)CC)[C@@H](C)CC)C(=O)NCC(=O)N[C@@H](CC(N)=O)C(=O)N[C@@H](CO)C(=O)NCC(=O)NCC(=O)NCC(=O)O (H-RQIKIWFQNRRMKWKKKAYARIGNSGGG-OH) |  |  |  |  |  |  |  | cytotoxic activity / cell-killing effect (cancer cells): the cytotoxic activity was lower |
| CC[C@H](C)[C@H](NC(=O)[C@H](CCCNC(=N)N)NC(=O)[C@H](C)NC(=O)[C@H](Cc1ccc(O)cc1)NC(=O)[C@H](C)NC(=O)[C@H](CCCCN)NC(=O)[C@H](C)NC(=O)[C@@H](NC(=O)[C@H](CCC(N)=O)NC(=O)[C@H](CCCNC(=N)N)NC(=O)[C@H](CCCCN)NC(=O)[C@H](CCCCN)NC(=O)[C@H](Cc1c[nH]c2ccccc12)NC(=O)[C@H](CCCCN)NC(=O)[C@H](CCSC)NC(=O)[C@H](CCCNC(=N)N)NC(=O)[C@H](CCCNC(=N)N)NC(=O)[C@H](CC(N)=O)NC(=O)[C@H](CCC(N)=O)NC(=O)[C@H](Cc1ccccc1)NC(=O)[C@H](Cc1c[nH]c2ccccc12)NC(=O)[C@@H](NC(=O)[C@H](CCCCN)NC(=O)[C@@H](NC(=O)[C@H](CCC(N)=O)NC(=O)[C@@H](N)CCCNC(=N)N)[C@@H](C)CC)[C@@H](C)CC)[C@@H](C)CC)C(=O)NCC(=O)N[C@@H](CC(N)=O)C(=O)N[C@@H](CO)C(=O)N[C@@H](Cc1ccc(O)cc1)C(=O)N[C@@H](Cc1ccccc1)C(=O)N[C@@H](CCCCN)C(=O)O [Antp-TPR slong] (H-RQIKIWFQNRRMKWKKRQIAKAYARIGNSYFK-OH; N-terminus and C-terminus assumed) | retained the effect of wild-type peptide |  |  |  |  |  |  |  |
| RQIKIWFQNRRMKWKKRKFSAAIGYNKY (Antp-scramble peptide) [reference compound] |  |  |  |  | 95.30 | 6.13 | 24.39 |  |
| RQIKIWFQNRRMKWKKKGYGRIGNYYYK (Antp-TPR A2G,A4G,S9Y,F11Y peptide) [Antp-A2G, A4G, S9Y, F11Y] |  |  |  |  | 21.14 | 102.73 | 109.90 | killing effect compared with the wild-type peptide (U937): increase in effect |
| RQIKIWFQNRRMKWKKKAYARAGNSYFK (Antp-TPR I6A peptide) [Antp-I6A] |  |  |  | effect higher than the wild-type protein | 7.48 | 120.54 | 310.88 | killing effect compared with the wild-type peptide (U937): increase in effect |
| CC[C@H](C)[C@H](NC(=O)[C@H](CCCCN)NC(=O)[C@@H](NC(=O)[C@H](CCC(N)=O)NC(=O)[C@@H](N)CCCNC(=N)N)[C@@H](C)CC)C(=O)N[C@@H](Cc1c[nH]c2ccccc12)C(=O)N[C@@H](Cc1ccccc1)C(=O)N[C@@H](CCC(N)=O)C(=O)N[C@@H](CC(N)=O)C(=O)N[C@@H](CCCNC(=N)N)C(=O)N[C@@H](CCCNC(=N)N)C(=O)N[C@@H](CCSC)C(=O)N[C@@H](CCCCN)C(=O)N[C@@H](Cc1c[nH]c2ccccc12)C(=O)N[C@@H](CCCCN)C(=O)N[C@@H](CCCCN)C(=O)N[C@@H](CCCCN)C(=O)N[C@@H](C)C(=O)N[C@@H](Cc1ccc(O)cc1)C(=O)N[C@@H](C)C(=O)N[C@@H](C)C(=O)N[C@@H](C)C(=O)NCC(=O)N[C@@H](CC(N)=O)C(=O)N[C@@H](CO)C(=O)N[C@@H](Cc1ccc(O)cc1)C(=O)N[C@@H](Cc1ccccc1)C(=O)N[C@@H](CCCCN)C(=O)O (H-RQIKIWFQNRRMKWKKKAYAAAGNSYFK-OH; N-terminus and C-terminus assumed) |  |  |  |  |  |  |  | cytotoxic activity / cell-killing effect (cancer cells): the cytotoxic activity was lower |
| RQIKIWFQNRRMKWKKKAYAAIGNSYFK (Antp-TPR R5A peptide) [Antp-R5A] |  |  |  | effective but with a lower effect than the wild-type protein | 40.24 | 77.85 | 57.74 |  |
